These results are taken from ChEMBL document CHEMBL1201862, “PubChem BioAssay data set” (2004).

Calls of active or inactive are those of the source.

Assay [1] deals with T1, Zinc finger protein mex-5 (Caenorhabditis elegans, UniProt Q9XUB2).
T1 sequence (Q9XUB2 whole entry): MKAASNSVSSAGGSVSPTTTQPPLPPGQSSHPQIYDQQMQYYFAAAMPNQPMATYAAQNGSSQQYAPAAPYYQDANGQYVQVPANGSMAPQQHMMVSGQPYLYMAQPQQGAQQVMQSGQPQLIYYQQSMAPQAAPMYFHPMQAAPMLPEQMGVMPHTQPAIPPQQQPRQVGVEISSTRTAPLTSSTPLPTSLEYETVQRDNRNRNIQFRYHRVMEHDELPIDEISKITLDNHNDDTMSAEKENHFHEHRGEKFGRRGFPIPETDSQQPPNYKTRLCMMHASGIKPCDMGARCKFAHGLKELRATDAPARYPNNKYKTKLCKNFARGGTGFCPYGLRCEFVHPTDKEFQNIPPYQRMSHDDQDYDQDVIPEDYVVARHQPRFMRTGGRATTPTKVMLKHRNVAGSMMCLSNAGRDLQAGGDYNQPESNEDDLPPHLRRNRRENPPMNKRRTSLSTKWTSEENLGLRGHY
The assay can be described thus: MEX-5/TCR-2 RNA interaction inhibitors, dose response, biochemical, C. elegans, fluorescence polarization (AID 1960). (Fluorescence polarisation rises when a labelled molecule tumbles more slowly, as on binding a larger partner.)

For assay [2], the target named is T2, RNA-binding protein pos-1 (Caenorhabditis elegans, UniProt G5EF15).
T2 sequence (G5EF15 whole entry): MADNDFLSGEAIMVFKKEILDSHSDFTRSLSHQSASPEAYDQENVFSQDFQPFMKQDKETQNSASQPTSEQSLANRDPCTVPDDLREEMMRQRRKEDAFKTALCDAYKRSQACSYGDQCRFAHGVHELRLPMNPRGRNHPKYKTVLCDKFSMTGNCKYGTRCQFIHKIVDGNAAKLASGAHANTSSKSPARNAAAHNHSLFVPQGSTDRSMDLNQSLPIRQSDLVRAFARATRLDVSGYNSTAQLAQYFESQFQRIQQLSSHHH
The assay can be described thus: inhibitors of POS-1/mex-3 RNA binding, dose response, biochemical, fluorescence polarization (AID 1964).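 Note: purified POS-1 fused to maltose binding protein made in E. coli; potency of compounds blocking POS-1 binding to fluorescent RNA.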

Assay [3] in a line: P. falciparum Dd2 growth inhibitors, dose response, SYBR Green, cherry-picked samples (AID 1159567). The class given is functional, cell-based.
Another assay has as its target T3, Leucine aminopeptidase (Plasmodium falciparum 3D7, UniProt Q8IL11).
T3 sequence (Q8IL11 whole entry): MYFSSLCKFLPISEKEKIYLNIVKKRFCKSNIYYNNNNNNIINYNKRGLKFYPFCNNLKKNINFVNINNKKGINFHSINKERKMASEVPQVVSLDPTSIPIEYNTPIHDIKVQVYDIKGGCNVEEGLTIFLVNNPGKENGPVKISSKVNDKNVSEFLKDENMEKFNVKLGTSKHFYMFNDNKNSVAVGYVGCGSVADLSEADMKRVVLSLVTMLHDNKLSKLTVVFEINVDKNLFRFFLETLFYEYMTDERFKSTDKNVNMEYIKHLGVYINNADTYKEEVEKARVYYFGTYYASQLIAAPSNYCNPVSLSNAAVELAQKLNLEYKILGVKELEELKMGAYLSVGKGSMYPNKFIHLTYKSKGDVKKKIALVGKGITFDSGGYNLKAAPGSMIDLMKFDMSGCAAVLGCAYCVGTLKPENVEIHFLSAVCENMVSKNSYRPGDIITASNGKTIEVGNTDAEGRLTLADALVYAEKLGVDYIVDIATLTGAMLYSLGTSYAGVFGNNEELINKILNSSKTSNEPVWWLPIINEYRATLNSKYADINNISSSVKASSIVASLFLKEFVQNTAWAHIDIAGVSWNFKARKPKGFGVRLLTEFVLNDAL
The assay can be described thus: P. falciparum M17LAP inhibitors, primary screen, biochemical, fluorogenic H-Leu-NHMec substrate, 1536-well (AID 1619). It is filed as functional.

Assay [4] can be described thus: NIH-3T3 fibroblast cytotoxicity, dose response, cytotoxicity control, cell-based, fluorescence, Alamar Blue, secondary assay (AID 2327).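 Note: NIH-3T3 mouse fibroblasts cultured with fluconazole at 8 µg/mL.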 The class given is functional. For orientation: The colour change of resazurin is a common sign of viable cells or microbes.
The next assay addresses T4, Streptokinase A (Streptococcus pyogenes serotype M1, UniProt P10520).
T4 sequence (P10520 whole entry): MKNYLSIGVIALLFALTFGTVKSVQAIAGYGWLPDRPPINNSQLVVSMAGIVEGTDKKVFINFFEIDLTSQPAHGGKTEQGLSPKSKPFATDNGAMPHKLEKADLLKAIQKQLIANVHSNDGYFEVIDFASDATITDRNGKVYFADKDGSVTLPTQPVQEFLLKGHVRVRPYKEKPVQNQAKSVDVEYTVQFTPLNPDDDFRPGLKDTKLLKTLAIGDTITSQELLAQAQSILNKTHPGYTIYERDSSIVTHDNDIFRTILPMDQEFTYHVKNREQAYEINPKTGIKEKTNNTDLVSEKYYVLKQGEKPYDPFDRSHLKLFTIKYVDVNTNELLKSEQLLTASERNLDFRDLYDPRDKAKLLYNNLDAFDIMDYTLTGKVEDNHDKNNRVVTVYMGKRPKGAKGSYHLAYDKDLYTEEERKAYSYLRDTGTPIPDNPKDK
The assay can be described thus: S. pyogenes streptokinase expression inhibitors, potency, dose response, plasminogen activation absorbance, OD405 (AID 1914).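 Note: secreted streptokinase activity via plasminogen activation per viability signal from cell pellet.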 It is filed as functional, Streptococcus pyogenes M1 GAS.

Assay [5] deals with Streptococcus sp. 'group A'. The assay can be described thus: growth inhibition of control SK(-) GAS strain, dose response, counter-screen for streptokinase expression inhibitor project, luminescence, kanamycin, BacTiterGlo, confirmation (AID 1900). It is filed as functional, organism-based. A general note: The purpose of a counterscreen is to sort out artefacts and off-target activity.

The nature of assay [6]: C. albicans growth with fluconazole, confirmation, fluorescence, retest (AID 2467). The class given is functional, cell-based.
The test system of another assay is Streptococcus. The assay can be described thus: Group A Streptococcus viability loss, dose response, counter-screen for streptokinase expression inhibitor project, luminescence, BacTiterGlo (AID 1915).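 Note: potency for reduction of bacterial viability or growth.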 It is filed as functional, organism-based.
The target of assay [7] is Luciferin 4-monooxygenase (Photinus pyralis, UniProt P08659). The assay can be described thus: firefly luciferase enzyme inhibitors, dose response, biochemical, luminescence (AID 1891).
Assay [8] in a line: Luminescence Cell-Based Dose Confirmation HTS to Identify Inhibitors of Platelet Dense Granule Release. [Related pubchem assays: 1663 (Primary HTS), 1678 (Summary of Project)]. The class given is functional.
Another assay concerns the target Cytochrome P450 2C19 (Homo sapiens, UniProt P33261). The assay can be described thus: Cytochrome panel assay with activity outcomes. Panel member name: p450-cyp2c19 Compounds with AC50 equal or less than 10 uM are considered active. It is filed as functional. As to conditions: read-out: AC50.
Another assay has as its target T5, Cytochrome P450 1A2 (Homo sapiens, UniProt P05177).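 Note: PubChem cytochrome P450 panel assay, CYP1A2 panel member.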
T5 sequence (P05177 whole entry): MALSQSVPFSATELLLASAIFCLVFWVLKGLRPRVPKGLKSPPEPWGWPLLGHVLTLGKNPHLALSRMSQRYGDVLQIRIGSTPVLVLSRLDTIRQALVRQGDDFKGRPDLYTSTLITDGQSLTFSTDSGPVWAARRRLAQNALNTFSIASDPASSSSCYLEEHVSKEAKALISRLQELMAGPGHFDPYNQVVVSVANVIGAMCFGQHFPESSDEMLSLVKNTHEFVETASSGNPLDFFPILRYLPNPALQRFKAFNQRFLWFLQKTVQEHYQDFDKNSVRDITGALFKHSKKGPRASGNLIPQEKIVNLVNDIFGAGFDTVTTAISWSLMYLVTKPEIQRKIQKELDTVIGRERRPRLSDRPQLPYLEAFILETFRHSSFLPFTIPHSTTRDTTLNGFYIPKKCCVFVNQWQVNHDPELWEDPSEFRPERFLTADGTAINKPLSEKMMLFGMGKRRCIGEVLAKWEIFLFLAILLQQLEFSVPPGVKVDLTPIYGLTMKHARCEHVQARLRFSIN

Sequence of Luciferin 4-monooxygenase (P08659 whole entry): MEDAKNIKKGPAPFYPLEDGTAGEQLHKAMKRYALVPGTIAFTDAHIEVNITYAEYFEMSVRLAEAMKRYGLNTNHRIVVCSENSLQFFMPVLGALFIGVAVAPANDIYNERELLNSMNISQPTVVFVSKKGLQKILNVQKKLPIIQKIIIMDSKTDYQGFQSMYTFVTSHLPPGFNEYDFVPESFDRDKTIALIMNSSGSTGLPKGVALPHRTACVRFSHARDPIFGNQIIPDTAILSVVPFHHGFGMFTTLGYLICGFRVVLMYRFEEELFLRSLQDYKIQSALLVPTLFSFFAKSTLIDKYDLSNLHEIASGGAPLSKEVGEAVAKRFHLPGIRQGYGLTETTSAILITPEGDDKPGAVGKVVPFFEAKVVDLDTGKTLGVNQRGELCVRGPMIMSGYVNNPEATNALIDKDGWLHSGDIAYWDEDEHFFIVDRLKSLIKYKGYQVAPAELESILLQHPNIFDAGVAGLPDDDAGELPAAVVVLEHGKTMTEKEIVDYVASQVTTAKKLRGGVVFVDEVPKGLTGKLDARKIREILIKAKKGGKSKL
Sequence of Cytochrome P450 2C19 (P33261 whole entry): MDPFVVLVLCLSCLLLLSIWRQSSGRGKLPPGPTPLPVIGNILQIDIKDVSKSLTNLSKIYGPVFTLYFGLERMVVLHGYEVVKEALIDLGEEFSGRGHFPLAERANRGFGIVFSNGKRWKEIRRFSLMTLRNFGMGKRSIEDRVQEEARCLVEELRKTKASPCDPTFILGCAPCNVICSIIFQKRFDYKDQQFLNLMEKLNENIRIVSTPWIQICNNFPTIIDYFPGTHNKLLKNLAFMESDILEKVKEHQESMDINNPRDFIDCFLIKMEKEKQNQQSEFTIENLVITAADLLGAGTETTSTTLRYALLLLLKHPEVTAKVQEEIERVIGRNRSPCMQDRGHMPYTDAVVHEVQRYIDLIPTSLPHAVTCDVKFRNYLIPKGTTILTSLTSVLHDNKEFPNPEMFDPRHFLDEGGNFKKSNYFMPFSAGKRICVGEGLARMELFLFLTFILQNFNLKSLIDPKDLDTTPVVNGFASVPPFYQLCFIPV

Take `COc1cc2c(cc1C1C(C#N)=C(N)OC3=C1C(=O)CC(C)(C)C3)OCO2` (stereo unspecified): the EC50 in [1] and in [2] was > 300 µM (not active) each time.

`O=C1CCC/C1=c1\s/c(=C\c2cccnc2)c(=O)n1-c1ccccc1`: the EC50 – broadly, the concentration at which the effect is half-maximal – is 42 µM (active) in assay [1] and > 300 µM (not active) in assay [2].

Regarding `Cc1cccc(C(=O)NCCCNC(=O)c2cccc(C)c2)c1`, the 50% effective concentration (EC50) in assay [1] and in assay [2] was > 300 µM (not active) each time.

As to `Cc1cccc(S(=O)(=O)N2CCCCN3[C@H](C2)[C@@H](c2ccc(-c4cccnc4)cc2)[C@@H]3CO)c1`, the AC50 (in general, the concentration giving half of the maximal activity seen) in [3] is 4.88 µM (active).

Turning to `COc1ccc(S(=O)(=O)N2CC[C@@H]3[C@H]2c2cc(-c4ccc(C#N)cc4)ccc2N[C@@H]3CO)cc1`, in assay [3], the concentration at half-maximal activity (AC50) is 9.46 µM (active).

In the case of `O=C(Nc1ccccc1)NC(Cc1ccc(O)cc1)C(=O)O` (stereo unspecified), the IC50 (usually the point on the concentration scale where inhibition reaches its midpoint) on Leucine aminopeptidase was 34.7 µM (active).

With `Oc1c(C(Nc2cccc(C(F)(F)F)c2)c2cccnc2)ccc2cccnc12` (stereo unspecified), the EC50 in [4] is > 150 µM (inactive); on Streptokinase A, > 150 µM (not active); in assay [5], 1.71 µM (active); in assay [6], > 38 µM (not active); in the assay with Streptococcus it was 15.6 µM (active).

`COc1ccc2cc(/C=C3\SC(=S)NC3=O)c(N3CCOCC3)nc2c1`: the IC50 on Leucine aminopeptidase is 1.76 µM (active).

Regarding `CSc1nnc(N2C(=O)C(O)=C(C(=O)c3ccco3)C2c2cccc(Cl)c2)s1` (stereo unspecified), the concentration for a half-maximal effect (EC50) in [7] is > 112 µM (not active); in assay [8], > 112 µM (not active); in assay [1], 14.3 µM (active); in assay [2], 31.3 µM (active).

Turning to `O=C(C[C@@H]1C[C@H]2c3cc(NC(=O)Nc4ccccc4)ccc3O[C@H]2[C@H](CO)O1)NCc1ccccc1`, the AC50 in assay [3] was 15.9 µM (active).

Take `O=C(O)CCc1nnc(SCC(=O)Nc2ccc(Cl)c(C(F)(F)F)c2)nc1O`: at Leucine aminopeptidase, the half-maximal inhibitory concentration (IC50) was 2.82 µM (active).

Turning to `N#CC1=C(N)OC2=C(C(=O)CCC2)[C@]12C(=O)N(CC(N)=O)c1ccccc12`, the EC50 in assay [1] and in assay [2] was > 300 µM (not active) throughout.

Consider `COc1ccc2c3c(n(C)c2c1)[C@H](CO)N(C(=O)c1ccccc1)CC31CCN(C(=O)c2ccccc2)CC1`, for which the half-maximal activity concentration (AC50) in assay [3] was 7.29 µM (active).

For `CC(/C=C1\N=C(SCc2ccccc2Cl)SC1=O)=C\c1ccccc1`, the half-maximal effective concentration (EC50) in assay [1] and in assay [2] was > 300 µM (not active) in each case. Besides, the concentration at half-maximal activity (AC50) at Cytochrome P450 2C19 is 7.08 µM (inconclusive); at Cytochrome P450 1A2, 4.47 µM (inconclusive).

With `CCCc1cn([C@H]2C[C@@H]3O[C@H](CO)CC[C@@H]3O[C@@H]2CCc2ccc(-c3ccc(OC)cc3)cc2)nn1`, the concentration at half-maximal activity (AC50) in assay [3] was 4.34 µM (active).

Regarding `N#Cc1c(/N=C/C2C(=O)NC(=S)NC2=O)sc2c1CCCC2`, the IC50 on Leucine aminopeptidase was 110 µM (active).

Take `Cc1noc(C)c1S(=O)(=O)NC1CCN(Cc2ccccc2)CC1`: the half-maximal effective concentration (EC50) was 35.3 µM (active) in [1] and 49.2 µM (active) in assay [2].

With `O=C1C2CCCN2C(c2ccccc2)N1c1ccccn1` (stereo unspecified), the values for the EC50 in [4] and in assay [6] were > 160 µM (inactive) and > 38 µM (not active), respectively.

Consider `CCCCn1c(=O)[nH]c(=O)c2c1nc(-c1ccc(-c3ccccc3Br)o1)n2CCOC`, for which the EC50 in [1] and in assay [2] was > 300 µM (not active) each time.
